Tests used:
Assay type in all cases: in vivo
Chenopodium album [1] = test: Herbicidal activity, postemergence test; details: post; sprayed onto seedling plants, 800 g of active material per hectare; evaluated 2 weeks after treatment
How it was run: (§1)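 First, test compound in acetone containing 0.4% Triton X-155 is diluted with water. Next, it is sprayed at 800 g/ha (900 L/ha) onto freshly seeded loam (pre) or onto seedlings (post). Finally, plants are scored 0-9 visually after 3 or 2 weeks, respectively.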

Hordeum vulgare [2] = test: Herbicidal activity, postemergence test; details: post; sprayed onto seedling plants, 800 g of active material per hectare; evaluated 2 weeks after treatment
How it was run: as §1

Zea mays [3] = test: Herbicidal activity, postemergence test; details: post; sprayed onto seedling plants, 800 g of active material per hectare; evaluated 2 weeks after treatment
How it was run: as §1

Gossypium hirsutum [4] = test: Herbicidal activity, postemergence test; details: post; sprayed onto seedling plants, 800 g of active material per hectare; evaluated 2 weeks after treatment
How it was run: as §1

Setaria viridis [5] = test: Herbicidal activity, postemergence test; details: post; sprayed onto seedling plants, 800 g of active material per hectare; evaluated 2 weeks after treatment
How it was run: as §1

Papaver rhoeas [6] = test: Herbicidal activity, postemergence test; details: post; sprayed onto seedling plants, 800 g of active material per hectare; evaluated 2 weeks after treatment
How it was run: as §1

Veronica persica [7] = test: Herbicidal activity, postemergence test; details: post; sprayed onto seedling plants, 800 g of active material per hectare; evaluated 2 weeks after treatment
How it was run: as §1

Abutilon theophrasti [8] = test: Herbicidal activity, postemergence test; details: post; sprayed onto seedling plants, 800 g of active material per hectare; evaluated 2 weeks after treatment
How it was run: as §1

Lamium purpureum [9] = test: Herbicidal activity, postemergence test; details: post; sprayed onto seedling plants, 800 g of active material per hectare; evaluated 2 weeks after treatment
How it was run: as §1

Alopecurus myosuroides [10] = test: Herbicidal activity, postemergence test; details: post; sprayed onto seedling plants, 800 g of active material per hectare; evaluated 2 weeks after treatment
How it was run: as §1

Matricaria inodora [11] = test: Herbicidal activity, postemergence test; details: post; sprayed onto seedling plants, 800 g of active material per hectare; evaluated 2 weeks after treatment
How it was run: as §1

Glycine max [12] = test: Herbicidal activity, postemergence test; details: post; sprayed onto seedling plants, 800 g of active material per hectare; evaluated 2 weeks after treatment
How it was run: as §1

Galium aparine [13] = test: Herbicidal activity, postemergence test; details: post; sprayed onto seedling plants, 800 g of active material per hectare; evaluated 2 weeks after treatment
How it was run: as §1

Ambrosia artemisifolia [14] = test: Herbicidal activity, postemergence test; details: post; sprayed onto seedling plants, 800 g of active material per hectare; evaluated 2 weeks after treatment
How it was run: as §1

Ipomoea hederacea [15] = test: Herbicidal activity, postemergence test; details: post; sprayed onto seedling plants, 800 g of active material per hectare; evaluated 2 weeks after treatment
How it was run: as §1

Stellaria media [16] = test: Herbicidal activity, postemergence test; details: post; sprayed onto seedling plants, 800 g of active material per hectare; evaluated 2 weeks after treatment
How it was run: as §1

Triticum aestivum [17] = test: Herbicidal activity, postemergence test; details: post; sprayed onto seedling plants, 800 g of active material per hectare; evaluated 2 weeks after treatment
How it was run: as §1

Amaranthus retroflexus [18] = test: Herbicidal activity, postemergence test; details: post; sprayed onto seedling plants, 800 g of active material per hectare; evaluated 2 weeks after treatment
How it was run: as §1

Chenopodium album [19] = test: Herbicidal activity, preemergence test; details: pre; sprayed onto soil, 800 g of active material per hectare; evaluated 3 weeks after treatment
How it was run: as §1

Hordeum vulgare [20] = test: Herbicidal activity, preemergence test; details: pre; sprayed onto soil, 800 g of active material per hectare; evaluated 3 weeks after treatment
How it was run: as §1

Zea mays [21] = test: Herbicidal activity, preemergence test; details: pre; sprayed onto soil, 800 g of active material per hectare; evaluated 3 weeks after treatment
How it was run: as §1

Gossypium hirsutum [22] = test: Herbicidal activity, preemergence test; details: pre; sprayed onto soil, 800 g of active material per hectare; evaluated 3 weeks after treatment
How it was run: as §1

Setaria viridis [23] = test: Herbicidal activity, preemergence test; details: pre; sprayed onto soil, 800 g of active material per hectare; evaluated 3 weeks after treatment
How it was run: as §1

Papaver rhoeas [24] = test: Herbicidal activity, preemergence test; details: pre; sprayed onto soil, 800 g of active material per hectare; evaluated 3 weeks after treatment
How it was run: as §1

Veronica persica [25] = test: Herbicidal activity, preemergence test; details: pre; sprayed onto soil, 800 g of active material per hectare; evaluated 3 weeks after treatment
How it was run: as §1

Abutilon theophrasti [26] = test: Herbicidal activity, preemergence test; details: pre; sprayed onto soil, 800 g of active material per hectare; evaluated 3 weeks after treatment
How it was run: as §1

Lamium purpureum [27] = test: Herbicidal activity, preemergence test; details: pre; sprayed onto soil, 800 g of active material per hectare; evaluated 3 weeks after treatment
How it was run: as §1

Alopecurus myosuroides [28] = test: Herbicidal activity, preemergence test; details: pre; sprayed onto soil, 800 g of active material per hectare; evaluated 3 weeks after treatment
How it was run: as §1

Matricaria inodora [29] = test: Herbicidal activity, preemergence test; details: pre; sprayed onto soil, 800 g of active material per hectare; evaluated 3 weeks after treatment
How it was run: as §1

Glycine max [30] = test: Herbicidal activity, preemergence test; details: pre; sprayed onto soil, 800 g of active material per hectare; evaluated 3 weeks after treatment
How it was run: as §1

Galium aparine [31] = test: Herbicidal activity, preemergence test; details: pre; sprayed onto soil, 800 g of active material per hectare; evaluated 3 weeks after treatment
How it was run: as §1

Ambrosia artemisifolia [32] = test: Herbicidal activity, preemergence test; details: pre; sprayed onto soil, 800 g of active material per hectare; evaluated 3 weeks after treatment
How it was run: as §1

Ipomoea hederacea [33] = test: Herbicidal activity, preemergence test; details: pre; sprayed onto soil, 800 g of active material per hectare; evaluated 3 weeks after treatment
How it was run: as §1

Stellaria media [34] = test: Herbicidal activity, preemergence test; details: pre; sprayed onto soil, 800 g of active material per hectare; evaluated 3 weeks after treatment
How it was run: as §1

Triticum aestivum [35] = test: Herbicidal activity, preemergence test; details: pre; sprayed onto soil, 800 g of active material per hectare; evaluated 3 weeks after treatment
How it was run: as §1

Amaranthus retroflexus [36] = test: Herbicidal activity, preemergence test; details: pre; sprayed onto soil, 800 g of active material per hectare; evaluated 3 weeks after treatment
How it was run: as §1

C[C@H](NC(=O)c1nnc(-c2cc(Cl)cc(Cl)c2)o1)c1ccccc1 [Example 28]
CHEAL control rating (0-9) (Chenopodium album [1]): 2 (slight effect)
HORVW control rating (0-9) (Hordeum vulgare [2]): 0 (no effect)
ZEAMX control rating (0-9) (Zea mays [3]): 0 (no effect)
GOSHI control rating (0-9) (Gossypium hirsutum [4]): 0 (no effect)
SETVI control rating (0-9) (Setaria viridis [5]): 0 (no effect)
PAPRH control rating (0-9) (Papaver rhoeas [6]): 0 (no effect)
VERPE control rating (0-9) (Veronica persica [7]): 0 (no effect)
ABUTH control rating (0-9) (Abutilon theophrasti [8]): 0 (no effect)
LAMPU control rating (0-9) (Lamium purpureum [9]): 0 (no effect)
ALOMY control rating (0-9) (Alopecurus myosuroides [10]): 0 (no effect)
MATIN control rating (0-9) (Matricaria inodora [11]): 0 (no effect)
GLXMA control rating (0-9) (Glycine max [12]): 2 (slight effect)
GALAP control rating (0-9) (Galium aparine [13]): 0 (no effect)
AMBEL control rating (0-9) (Ambrosia artemisifolia [14]): 0 (no effect)
IPOHE control rating (0-9) (Ipomoea hederacea [15]): 0 (no effect)
STEME control rating (0-9) (Stellaria media [16]): 0 (no effect)
TRZAW control rating (0-9) (Triticum aestivum [17]): 0 (no effect)
AMARE control rating (0-9) (Amaranthus retroflexus [18]): 0 (no effect)
CHEAL control rating (0-9) (Chenopodium album [19]): 0 (no effect)
HORVW control rating (0-9) (Hordeum vulgare [20]): 0 (no effect)
ZEAMX control rating (0-9) (Zea mays [21]): 0 (no effect)
GOSHI control rating (0-9) (Gossypium hirsutum [22]): 0 (no effect)
SETVI control rating (0-9) (Setaria viridis [23]): 0 (no effect)
PAPRH control rating (0-9) (Papaver rhoeas [24]): 0 (no effect)
VERPE control rating (0-9) (Veronica persica [25]): 0 (no effect)
ABUTH control rating (0-9) (Abutilon theophrasti [26]): 0 (no effect)
LAMPU control rating (0-9) (Lamium purpureum [27]): 0 (no effect)
ALOMY control rating (0-9) (Alopecurus myosuroides [28]): 0 (no effect)
MATIN control rating (0-9) (Matricaria inodora [29]): 0 (no effect)
GLXMA control rating (0-9) (Glycine max [30]): 0 (no effect)
GALAP control rating (0-9) (Galium aparine [31]): 0 (no effect)
AMBEL control rating (0-9) (Ambrosia artemisifolia [32]): 0 (no effect)
IPOHE control rating (0-9) (Ipomoea hederacea [33]): 0 (no effect)
STEME control rating (0-9) (Stellaria media [34]): 0 (no effect)
TRZAW control rating (0-9) (Triticum aestivum [35]): 0 (no effect)
AMARE control rating (0-9) (Amaranthus retroflexus [36]): 0 (no effect)

C[C@H](NC(=O)c1nnc(-c2ccc(F)cc2F)o1)c1ccccc1 [Example 32]
CHEAL control rating (0-9) (Chenopodium album [1]): 9 (complete kill)
HORVW control rating (0-9) (Hordeum vulgare [2]): 3 (moderate effect)
ZEAMX control rating (0-9) (Zea mays [3]): 3 (moderate effect)
GOSHI control rating (0-9) (Gossypium hirsutum [4]): 9 (complete kill)
SETVI control rating (0-9) (Setaria viridis [5]): 9 (complete kill)
PAPRH control rating (0-9) (Papaver rhoeas [6]): 9 (complete kill)
VERPE control rating (0-9) (Veronica persica [7]): 9 (complete kill)
ABUTH control rating (0-9) (Abutilon theophrasti [8]): 8 (approaching complete kill)
LAMPU control rating (0-9) (Lamium purpureum [9]): 9 (complete kill)
ALOMY control rating (0-9) (Alopecurus myosuroides [10]): 3 (moderate effect)
MATIN control rating (0-9) (Matricaria inodora [11]): 9 (complete kill)
GLXMA control rating (0-9) (Glycine max [12]): 5 (definite injury)
GALAP control rating (0-9) (Galium aparine [13]): 6 (herbicidal effect)
AMBEL control rating (0-9) (Ambrosia artemisifolia [14]): 8 (approaching complete kill)
IPOHE control rating (0-9) (Ipomoea hederacea [15]): 9 (complete kill)
STEME control rating (0-9) (Stellaria media [16]): 9 (complete kill)
TRZAW control rating (0-9) (Triticum aestivum [17]): 3 (moderate effect)
AMARE control rating (0-9) (Amaranthus retroflexus [18]): 8 (approaching complete kill)
CHEAL control rating (0-9) (Chenopodium album [19]): 8 (approaching complete kill)
HORVW control rating (0-9) (Hordeum vulgare [20]): 0 (no effect)
ZEAMX control rating (0-9) (Zea mays [21]): 0 (no effect)
GOSHI control rating (0-9) (Gossypium hirsutum [22]): 0 (no effect)
SETVI control rating (0-9) (Setaria viridis [23]): 9 (complete kill)
PAPRH control rating (0-9) (Papaver rhoeas [24]): 8 (approaching complete kill)
VERPE control rating (0-9) (Veronica persica [25]): 9 (complete kill)
ABUTH control rating (0-9) (Abutilon theophrasti [26]): 2 (slight effect)
LAMPU control rating (0-9) (Lamium purpureum [27]): 8 (approaching complete kill)
ALOMY control rating (0-9) (Alopecurus myosuroides [28]): 3 (moderate effect)
MATIN control rating (0-9) (Matricaria inodora [29]): 9 (complete kill)
GLXMA control rating (0-9) (Glycine max [30]): 0 (no effect)
GALAP control rating (0-9) (Galium aparine [31]): 2 (slight effect)
AMBEL control rating (0-9) (Ambrosia artemisifolia [32]): 1 (trace effect)
IPOHE control rating (0-9) (Ipomoea hederacea [33]): 0 (no effect)
STEME control rating (0-9) (Stellaria media [34]): 9 (complete kill)
TRZAW control rating (0-9) (Triticum aestivum [35]): 0 (no effect)
AMARE control rating (0-9) (Amaranthus retroflexus [36]): 9 (complete kill)

From patent EP0726263A2, “Herbicidal (1,3,4)oxadiazoles and thiadiazoles” (American Cyanamid Company, priority 1995, dated 1996)
